Test results from patent US10189863B2, “5,6-dihydro-4H-benzo[b]thieno-[2,3-d]azepine derivatives” (PULMOCIDE LIMITED, priority 2014, dated 2019).

Tests used:
[1] = system: RSV A2 F-protein expression in BEAS2B bronchial epithelial cells; test: Assessment of RSV F protein expression in BEAS2B bronchial epithelial cells; assay type: cell-based; settings: human respiratory syncytial virus, BEAS-2B, 72 h, read-out: RSV A2 F-protein IC50 (nM)
Description: Assessment of RSV F Protein Expression in BEAS2B Bronchial Epithelial Cells
An early event which follows the infection of epithelial cells by RSV is the expression of RSV F-protein on the cells' surface. BEAS2B cells (SV40-immortalised human bronchial epithelial cell line) were grown in 96 well plates. Once more than 70% confluent, cells were infected with RSV A2 (#0709161v, NCPV, Public Health England, Wiltshire) at an MOI of 0.01 in clear RPMI-1640 medium (Life technologies, Paisley, UK) with 2% FBS (Life technologies, Paisley, UK), and incubated for 3 days (37° C./5% CO2).
Supernatant was aspirated and the cells were fixed with 4% formaldehyde (100 μL in PBS solution) for 20 min, washed 3 times with washing buffer (200 μL; PBS containing 0.05% Tween-20) and incubated with blocking solution (100 μL; 5% Marvel milk in PBS) for 1 hr. Cells were then washed with washing buffer (200 μL) and incubated for 1 hr at 37° C. with anti-RSV (2F7; mouse monoclonal, lot 160290, Cat. No. ab43812, Abcam plc, Cambridge, UK) F-fusion protein antibody (50 μL; prepared at a 1:1000 dilution in 5% milk/PBS-tween). After washing, cells were incubated with an HRP-conjugated anti-mouse IgG antibody (50 μL prepared at a 1:2000 dilution in 5% milk in PBS; lot 00095437, Cat.No. P0447, Dako UK Ltd, Cambridgeshire, UK) for 1 hr. Cells were washed twice with washing buffer and once with PBS. TMB substrate (100 μL; substrate reagent pack lot 320436, Cat. No. DY999, R&D Systems, Inc. Abingdon, UK) was then added and the reaction was stopped by the addition of aq sulfuric acid (50 μL; 2N). The resultant signal was determined colourimetrically (OD: 450 nm with a reference wavelength of 655 nm) in a microplate reader (Multiskan FC®, ThermoFisher Scientific). Cells were then washed and 1% crystal violet solution (50 μL; lot SLB4576, Cat. No. HT90132-1L, Sigma-Aldrich) was applied for 30 min. After washing with PBS (200 μL) 3 times, 1% SDS (100 μL) was added to each well, and plates were shaken lightly for 1 hr prior to reading the absorbance at 595 nm. The measured OD450-655 readings were corrected for cell number by dividing the OD450-655 by the OD595 readings. The percentage inhibition for each well was calculated and the IC50 value derived from the concentration-response curve generated for each test compound.

[2] = Cell viability: resazurin assay; assay type: cell-based, human; settings: human, HEp2 cells
In short: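 Viability read-out: resazurin fluorescence (ex 545, em 590 nm) after 6 h, following 5-day compound incubation of HEp2 cells (37 °C, 5% CO2, 5% FBS, 0.5% DMSO final). Loss expressed as percentage of vehicle, negative if viability rose; CC50 derived from concentration-response curve where appropriate.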

[3] = system: RSV B Washington strain; test: Assessment of RSV induced CPE in HEp2 cells (RSV B Washington strain); assay type: cell-based; settings: human respiratory syncytial virus, HEp2 cells; for IC50: HEp-2, 144 h, 1 MOI, 6 days, read-out: RSV B CPE IC50; for inhibition at 0.1 µg/mL / inhibition at 1 µg/mL: HEp-2; for inhibition at 0.1 µg/mL: Inhibition (%) at 0.1 μg/mL; for inhibition at 1 µg/mL: Inhibition (%) at 1 μg/mL, read-out: RSV B CPE % Inhibition
In short: (§1)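 HEp2 cells were infected at MOI 1 with RSV A2 or RSV B Washington, with compound added at the same time (0.5% DMSO final). Incubation was 5 days for A2 and 6 days for B, then viability was read by resazurin fluorescence (545/590 nm) after 6 h. IC50, IC75 and IC90 came from concentration-response curves.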

[4] = system: RSV A2 strain; test: Assessment of RSV induced CPE in HEp2 cells (RSV A2 strain); assay type: cell-based; settings: human respiratory syncytial virus, HEp2 cells; for IC50: HEp-2, 120 h, 1 MOI, 5 days, read-out: RSV A2 CPE IC50; for inhibition at 0.01 µg/mL / inhibition at 0.1 µg/mL: HEp-2; for inhibition at 0.01 µg/mL: Inhibition (%) at 0.01 μg/mL; for inhibition at 0.1 µg/mL: Inhibition (%) at 0.1 μg/mL, read-out: RSV A2 CPE % Inhibition
In short: as §1

SMILES	IC50 [1]	CC50 at 5 days [2]	IC50 [3]	inhibition at 0.1 µg/mL [3]	IC50 [4]	inhibition at 0.01 µg/mL [4]	inhibition at 0.1 µg/mL [4]	inhibition at 1 µg/mL [3]
Cc1cccc(F)c1NC(=O)c1cc2c(s1)-c1ccccc1N(C(=O)c1ccc(NC(=O)c3cc4c(nc3N3CC5(CCOCC5)C3)CCC4)cc1)CC2 [Example 8, 6-(4-(2-(7-Oxa-2-azaspiro[3.5]nonan-2-yl)-6,7-dihydro-5H-cyclopenta[b]pyridine-3-carboxamido)benzoyl)-N-(2-fluoro-6-methylphenyl)-5,6-dihydro-4H-benzo[b]thieno[2,3-d]azepine-2-carboxamide]	0.13 nM	> 13500 nM	1.3 nM	100%	0.27 nM	88%	–	–
Cc1cccc(F)c1NC(=O)c1cc2c(s1)-c1ccccc1N(C(=O)c1ccc(NC(=O)c3cc4c(nc3N3CC5(CCOCC5)C3)CCCC4)cc1)CC2 [Example 9, 6-(4-(2-(7-Oxa-2-azaspiro[3.5]nonan-2-yl)-5,6,7,8-tetrahydroquinoline-3-carboxamido)benzoyl)-N-(2-fluoro-6-methylphenyl)-5,6-dihydro-4H-benzo[b]thieno[2,3-d]azepine-2-carboxamide]	0.034 nM	12500 nM	1.4 nM	100%	0.39 nM	92%	–	–
Cc1cccc(F)c1NC(=O)c1cc2c(s1)-c1ccccc1N(C(=O)c1ccc(NC(=O)c3cc4ccccc4nc3N3CC4(CCOCC4)C3)cc1)CC2 [Example 10, 6-(4-(2-(7-Oxa-2-azaspiro[3.5]nonan-2-yl)quinoline-3-carboxamido)benzoyl)-N-(2-fluoro-6-methylphenyl)-5,6-dihydro-4H-benzo[b]thieno[2,3-d]azepine-2-carboxamide]	0.48 nM	> 13300 nM	1.5 nM	100%	0.11 nM	–	100%	–
Cc1ccccc1NC(=O)c1cc2c(s1)-c1ccccc1N(C(=O)c1ccc(NC(=O)c3cccnc3N3CC4(CCOCC4)C3)cc1)CC2 [Example 14, 6-(4-(2-(7-oxa-2-azaspiro[3.5]nonan-2-yl)nicotinamido)benzoyl)-N-(o-tolyl)-5,6-dihydro-4H-benzo[b]thieno[2,3-d] azepine-2-carboxamide]	0.41 nM	> 14600 nM	54.5 nM	–	0.65 nM	–	100%	92%
O=C(Nc1ccccc1F)c1cc2c(s1)-c1ccccc1N(C(=O)c1ccc(NC(=O)c3cccnc3N3CC4(CCOCC4)C3)cc1)CC2 [Example 15, 6-(4-(2-(7-oxa-2-azaspiro[3.5]nonan-2-yl)nicotinamido)benzoyl)-N-(2-fluorophenyl)-5,6-dihydro-4H-benzo[b]thieno [2,3-d]azepine-2-carboxamide]	0.36 nM	> 14500 nM	20.4 nM	–	0.4 nM	–	100%	85%
O=C(Nc1ccccc1Cl)c1cc2c(s1)-c1ccccc1N(C(=O)c1ccc(NC(=O)c3cccnc3N3CC4(CCOCC4)C3)cc1)CC2 [Example 16, 6-(4-(2-(7-oxa-2-azaspiro[3.5]nonan-2-yl)nicotinamido)benzoyl)-N-(2-chlorophenyl)-5,6-dihydro-4H-benzo[b]thieno [2,3-d]azepine-2-carboxamide]	0.93 nM	> 14200 nM	142 nM	–	0.76 nM	–	100%	63%
O=C(Nc1c(F)cccc1Cl)c1cc2c(s1)-c1ccccc1N(C(=O)c1ccc(NC(=O)c3cccnc3N3CC4(CCOCC4)C3)cc1)CC2 [Example 26, 6-(4-(2-(7-oxa-2-azaspiro[3.5]nonan-2-yl)nicotinamido)benzoyl)-N-(2-chloro-6-fluorophenyl)-5,6-dihydro-4H-benzo[b]thieno[2,3-d]azepine-2-carboxamide]	0.14 nM	> 13800 nM	9.3 nM	–	0.12 nM	–	95%	73%
O=C(Nc1ccc(F)cc1Cl)c1cc2c(s1)-c1ccccc1N(C(=O)c1ccc(NC(=O)c3cccnc3N3CC4(CCOCC4)C3)cc1)CC2 [Example 27, 6-(4-(2-(7-oxa-2-azaspiro[3.5]nonan-2-yl)nicotinamido)benzoyl)-N-(2-chloro-4-fluorophenyl)-5,6-dihydro-4H-benzo [b]thieno[2,3-d]azepine-2-carboxamide]	0.51 nM	> 13800 nM	37.4 nM	–	0.17 nM	–	100%	100%
O=C(Nc1c(F)cccc1F)c1cc2c(s1)-c1ccccc1N(C(=O)c1ccc(NC(=O)c3cccnc3N3CC4(CCOCC4)C3)cc1F)CC2 [Example 30, 6-(4-(2-(7-oxa-2-azaspiro[3.5]nonan-2-yl)nicotinamido)-2-fluorobenzoyl)-N-(2,6-difluorophenyl)-5,6-dihydro-4H-benzo[b]thieno[2,3-d]azepine-2-carboxamide]	0.27 nM	> 13800 nM	27.3 nM	–	0.12 nM	–	100%	94%
Cc1cnc(N2CC3(CCOCC3)C2)c(C(=O)Nc2ccc(C(=O)N3CCc4cc(C(=O)Nc5ccccc5F)sc4-c4ccccc43)cc2)c1 [Example 33, N-(2-fluorophenyl)-6-(4-(5-methyl-2-(7-oxa-2-azaspiro [3.5]nonan-2-yl)nicotinamido)benzoyl)-5,6-dihydro-4H-benzo[b]thieno[2,3-d]azepine-2-carboxamide]	0.19 nM	> 14200 nM	9.7 nM	–	< 0.014 nM	–	100%	74%
Cc1cnc(N2CCC3(CC2)COC3)c(C(=O)Nc2ccc(C(=O)N3CCc4cc(C(=O)Nc5c(F)cccc5Cl)sc4-c4ccccc43)cc2)c1 [Example 93, N-(2-chloro-6-fluorophenyl)-6-(4-(5-methyl-2-(2-oxa-7-azaspiro[3.5]nonan-7-yl)nicotinamido)benzoyl)-5,6-dihydro-4H-benzo[b]thieno[2,3-d]azepine-2-carboxamide]	–	> 13600 nM	59.3 nM	–	0.56 nM	98%	–	100%
Cc1cnc(N2CCC3(CC2)COC3)c(C(=O)Nc2ccc(C(=O)N3CCc4cc(C(=O)Nc5c(F)cccc5C(F)(F)F)sc4-c4ccccc43)cc2)c1 [Example 94, N-(2-fluoro-6-(trifluoromethyl)phenyl)-6-(4-(5-methyl-2-(2-oxa-7-azaspiro[3.5]nonan-7-yl)nicotinamido)benzoyl)-5,6-dihydro-4H-benzo[b]thieno[2,3-d]azepine-2-carboxamide]	–	> 13000 nM	811 nM	–	1.4 nM	100%	–	54%
Cc1cnc(N2CCC3(CCOCC3)CC2)c(C(=O)Nc2ccc(C(=O)N3CCc4cc(C(=O)Nc5c(C)cccc5F)sc4-c4ccccc43)cc2)c1 [Example 95, N-(2-fluoro-6-methylphenyl)-6-(4-(5-methyl-2-(3-oxa-9-azaspiro[5.5]undecan-9-yl)nicotinamido)benzoyl)-5,6-di-hydro-4H-benzo[b]thieno[2,3-d]azepine-2-carboxamide]	–	> 13400 nM	> 1340 nM	–	2.4 nM	100%	–	27%
